Test results as given in US11179397B2, “Imidazopyrimidine derivatives” (Gilead Sciences, Inc., priority 2018, dated 2021).
Like-named read-outs stand apart in the source and are kept apart here.

Columns and labels:
[1] = biological target: SHP-2 full length protein (Homo sapiens (Human), UniProt Q06124); assay: SHP-2 biochemical DiFMUP pseudosubstrate-fluorogenic assay; details: 0.2 nM SHP-2, 1 μM IRS-1 activator peptide, 50 μM DiFMUP; read-out: SHP2 IC50
Outline: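 In-house recombinant full-length SHP-2 preincubated 90 min at room temperature with compounds (1:3 series, 10,000–0.005 nM), then DiFMUP substrate added at 50 μM final for 30 min more. Fluorescence normalised to DMSO wells (100%) and IC50 derived by curve fitting.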

NCI-H358 cells = assay: NCI-H358 3D tumor spheroid growth inhibition; type: cell-based; details: Homo sapiens, NCI-H358, 168 h, read-out: H358 EC50
Outline: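 Cells seeded at 1000/well in ultra-low-attachment plates at 37 °C, 5% CO2 to form spheroids, then incubated a further 7 days with compounds. Viability by 3D CellTiter Glo luminescence; % inhibition versus DMSO wells, with normalized cellular IC50 reported as EC50.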

[2] = 3D spheroids, 7 days, 3D CellTiter Glo, cellular IC50 designated EC50

IC50 [1] | EC50 (NCI-H358 cells; [2]) | Structure (SMILES) | EC50 (NCI-H358 cells)
9.1 nM | 70 nM | C[C@@H]1OCC2(CCN(c3ncc(Sc4ccnc5c(F)cccc45)c4nccn34)CC2)[C@@H]1N [Example 122, (3S,4S)-8-(8-((8-fluoroquinolin-4-yl)thio)imidazo[1,2-c]pyrimidin-5-yl)-3-methyl-2-oxa-8-azaspiro[4.5]decan-4-amine] | –
6.8 nM | 95 nM | COc1ccc2c(Sc3cnc(N4CCC5(CC4)CO[C@@H](C)[C@H]5N)n4ccnc34)ccnc2c1 [Example 123, (3S,4S)-8-(8-((7-methoxyquinolin-4-yl)thio)imidazo[1,2-c]pyrimidin-5-yl)-3-methyl-2-oxa-8-azaspiro[4.5]decan-4-amine] | –
23 nM | 750 nM | NC1Cc2ccccc2C12CCN(c1ncc(Sc3cccc(Cl)c3Cl)c3nccn13)CC2 (centres unmarked) [Example 124, 1′-(8-((2,3-dichlorophenyl)thio)imidazo[1,2-c]pyrimidin-5-yl)-2,3-dihydrospiro[indene-1,4′-piperidin]-2-amine] | –
15 nM | 120 nM | C[C@@H]1OCC2(CCN(c3ncc(Sc4ccnc5cnccc45)c4nccn34)CC2)[C@@H]1N [Example 126, (3S,4S)-8-(8-((1,7-naphthyridin-4-yl)thio)imidazo[1,2-c]pyrimidin-5-yl)-3-methyl-2-oxa-8-azaspiro[4.5]decan-4-amine] | –
30 nM | 270 nM | C[C@@H]1OCC2(CCN(c3ncc(Sc4ccnc5ccc(C#N)cc45)c4nccn34)CC2)[C@@H]1N [Example 127, 4-((5-((3S,4S)-4-amino-3-methyl-2-oxa-8-azaspiro[4.5]decan-8-yl)imidazo[1,2-c]pyrimidin-8-yl)thio)quinoline-6-carbonitrile] | –
14 nM | 59 nM | C[C@@H]1OCC2(CCN(c3ncc(Sc4ccnc5cccnc45)c4nccn34)CC2)[C@@H]1N [Example 128, (3S,4S)-8-(8-((1,5-naphthyridin-4-yl)thio)imidazo[1,2-c]pyrimidin-5-yl)-3-methyl-2-oxa-8-azaspiro[4.5]decan-4-amine] | –
10 nM | 150 nM | C[C@@H]1OCC2(CCN(c3ncc(Sc4cccc5ncccc45)c4nccn34)CC2)[C@@H]1N [Example 129, (3S,4S)-3-methyl-8-(8-(quinolin-5-ylthio)imidazo[1,2-c]pyrimidin-5-yl)-2-oxa-8-azaspiro[4.5]decan-4-amine] | –
5.7 nM | 57 nM | C[C@@H]1OCC2(CCN(c3ncc(Sc4ccnc5[nH]ccc45)c4nccn34)CC2)[C@@H]1N [Example 130, (3S,4S)-8-(8-((1H-pyrrolo[2,3-b]pyridin-4-yl)thio)imidazo[1,2-c]pyrimidin-5-yl)-3-methyl-2-oxa-8-azaspiro[4.5]decan-4-amine] | –
27 nM | 2100 nM | C[C@@H]1OCC2(CCN(c3ncc(Sc4ccnc5[nH]cnc45)c4nccn34)CC2)[C@@H]1N [Example 131, (3S,4S)-8-(8-((3H-imidazo[4,5-b]pyridin-7-yl)thio)imidazo[1,2-c]pyrimidin-5-yl)-3-methyl-2-oxa-8-azaspiro[4.5]decan-4-amine] | –
22 nM | 290 nM | COc1ccc2nccc(Sc3cnc(N4CCC5(CC4)CO[C@@H](C)[C@H]5N)n4ccnc34)c2c1 [Example 132, (3S,4S)-8-(8-((6-methoxyquinolin-4-yl)thio)imidazo[1,2-c]pyrimidin-5-yl)-3-methyl-2-oxa-8-azaspiro[4.5]decan-4-amine] | –
5.4 nM | 14 nM | Cc1nc(N2CCC3(CC2)Cc2ccccc2[C@H]3N)n2ccnc2c1-c1cccc(Cl)c1Cl [Example 135, (S)-1′-(8-(2,3-dichlorophenyl)-7-methylimidazo[1,2-c]pyrimidin-5-yl)-1,3-dihydrospiro[indene-2,4′-piperidin]-1-amine] | –
4.3 nM | 130 nM | C[C@@H]1OCC2(CCN(c3ncc(Sc4cccc5ccccc45)c4nccn34)CC2)[C@@H]1N [Example 136, (3S,4S)-3-methyl-8-(8-(naphthalen-1-ylthio)imidazo[1,2-c]pyrimidin-5-yl)-2-oxa-8-azaspiro[4.5]decan-4-amine] | –

The remaining lines, values behind:

Structure (SMILES) | IC50 [1] | EC50 (NCI-H358 cells; [2]) | EC50 (NCI-H358 cells)
COC(=O)c1cccc2c(Sc3cnc(N4CCC5(CC4)CO[C@@H](C)[C@H]5N)n4ccnc34)ccnc12 [Example 105, methyl 4-((5-((3S,4S)-4-amino-3-methyl-2-oxa-8-azaspiro[4.5]decan-8-yl)imidazo[1,2-c]pyrimidin-8-yl)thio)quinoline-8-carboxylate] | 82 nM | 760 nM | –
C[C@@H]1OCC2(CCN(c3ncc(Sc4ccnc5ccsc45)c4nccn34)CC2)[C@@H]1N [Example 106, (3S,4S)-3-methyl-8-(8-(thieno[3,2-b]pyridin-7-ylthio)imidazo[1,2-c]pyrimidin-5-yl)-2-oxa-8-azaspiro[4.5]decan-4-amine] | 4.2 nM | 39 nM | –
C[C@@H]1OCC2(CCN(c3ncc(Sc4cccc5cnsc45)c4nccn34)CC2)[C@@H]1N [Example 107, (3S,4S)-8-(8-(benzo[d]isothiazol-7-ylthio)imidazo[1,2-c]pyrimidin-5-yl)-3-methyl-2-oxa-8-azaspiro[4.5]decan-4-amine] | 3.7 nM | 64 nM | –
CSc1c(Cl)cccc1Sc1cnc(N2CCC3(CC2)CO[C@@H](C)[C@H]3N)n2ccnc12 [Example 108, (3S,4S)-8-(8-((3-chloro-2-(methylthio)phenyl)thio)imidazo[1,2-c]pyrimidin-5-yl)-3-methyl-2-oxa-8-azaspiro[4.5]decan-4-amine] | 3.3 nM | 87 nM | –
C[C@@H]1OCC2(CCN(c3ncc(Sc4ccnc5c(-n6cncn6)cccc45)c4nccn34)CC2)[C@@H]1N [Example 109, (3S,4S)-8-(8-((8-(1H-1,2,4-triazol-1-yl)quinolin-4-yl)thio)imidazo[1,2-c]pyrimidin-5-yl)-3-methyl-2-oxa-8-azaspiro[4.5]decan-4-amine] | 18 nM | 260 nM | –
C[C@@H]1OCC2(CCN(c3ncc(Sc4ccnc5c(C(=O)O)cccc45)c4nccn34)CC2)[C@@H]1N [Example 110, 4-((5-((3S,4S)-4-amino-3-methyl-2-oxa-8-azaspiro[4.5]decan-8-yl)imidazo[1,2-c]pyrimidin-8-yl)thio)quinoline-8-carboxylic acid] | 190 nM | 930 nM | –
C[C@@H]1OCC2(CCN(c3ncc(Sc4cc(N)nc5ccccc45)c4nccn34)CC2)[C@@H]1N [Example 111, (3S,4S)-8-(8-((2-aminoquinolin-4-yl)thio)imidazo[1,2-c]pyrimidin-5-yl)-3-methyl-2-oxa-8-azaspiro[4.5]decan-4-amine] | 7.1 nM | 170 nM | –
CC(=O)Nc1cccc2c(Sc3cnc(N4CCC5(CC4)CO[C@@H](C)[C@H]5N)n4ccnc34)ccnc12 [Example 112, N-(4-((5-((3S,4S)-4-amino-3-methyl-2-oxa-8-azaspiro[4.5]decan-8-yl)imidazo[1,2-c]pyrimidin-8-yl)thio)quinolin-8-yl)acetamide] | 10 nM | 56 nM | –
C[C@@H]1OCC2(CCN(c3ncc(Sc4ccnc5c(C(N)=O)cccc45)c4nccn34)CC2)[C@@H]1N [Example 113, 4-((5-((3S,4S)-4-amino-3-methyl-2-oxa-8-azaspiro[4.5]decan-8-yl)imidazo[1,2-c]pyrimidin-8-yl)thio)quinoline-8-carboxamide] | 11 nM | 340 nM | –
C[C@@H]1OCC2(CCN(c3ncc(Sc4ccnc5ccccc45)c4nccn34)CC2)[C@@H]1N [Example 114, (3S,4S)-3-methyl-8-(8-(quinolin-4-ylthio)imidazo[1,2-c]pyrimidin-5-yl)-2-oxa-8-azaspiro[4.5]decan-4-amine] | 6.8 nM | 64 nM | –
C[C@@H]1OCC2(CCN(c3ncc(Sc4ccnc5ccc(F)cc45)c4nccn34)CC2)[C@@H]1N [Example 115, (3S,4S)-8-(8-((6-fluoroquinolin-4-yl)thio)imidazo[1,2-c]pyrimidin-5-yl)-3-methyl-2-oxa-8-azaspiro[4.5]decan-4-amine] | 8.4 nM | 90 nM | –
C[C@@H]1OCC2(CCN(c3ncc(Sc4ccnc5cc(F)ccc45)c4nccn34)CC2)[C@@H]1N [Example 116, (3S,4S)-8-(8-((7-fluoroquinolin-4-yl)thio)imidazo[1,2-c]pyrimidin-5-yl)-3-methyl-2-oxa-8-azaspiro[4.5]decan-4-amine] | 8 nM | 72 nM | –
C[C@@H]1OCC2(CCN(c3ncc(Sc4ncnc5ccccc45)c4nccn34)CC2)[C@@H]1N [Example 117, (3S,4S)-3-methyl-8-(8-(quinazolin-4-ylthio)imidazo[1,2-c]pyrimidin-5-yl)-2-oxa-8-azaspiro[4.5]decan-4-amine] | > 10000 nM | > 12500 nM | –
NCC1CCN(c2ncc(Sc3cccc(Cl)c3Cl)c3nccn23)CC1 [Example 119, (1-(8-((2,3-dichlorophenyl)thio)imidazo[1,2-c]pyrimidin-5-yl)piperidin-4-yl)methanamine] | 73 nM | 2200 nM | –
C[C@@H]1OCC2(CCN(c3ncc(Sc4ccc(C(N)=O)c5ccccc45)c4nccn34)CC2)[C@@H]1N [Example 120, 4-((5-((3S,4S)-4-amino-3-methyl-2-oxa-8-azaspiro[4.5]decan-8-yl)imidazo[1,2-c]pyrimidin-8-yl)thio)-1-naphthamide] | 26 nM | 500 nM | –
Nc1nccc(Sc2cnc(N3CCC4(CC3)Cc3ccccc3[C@H]4N)n3ccnc23)c1Cl [Example 121, (S)-1′-(8-((2-amino-3-chloropyridin-4-yl)thio)imidazo[1,2-c]pyrimidin-5-yl)-1,3-dihydrospiro[indene-2,4′-piperidin]-1 amine] | 4.8 nM | – | 4.2 nM
